Laboratory results published in patent publication US20260372305A1, “A METHOD FOR CONTROLLING WEEDS” (SYNGENTA CROP PROTECTION AG, priority 2022, published 2026).

Legend:
Format in all cases: in vivo
[1] = tested on: Amaranthus palmeri, PPO inhibitor sensitive population ('Sensitive'); assay: Postemergence control of PPO inhibitor sensitive Amaranthus palmeri (Example 1); details: for use rate achieving complete control (no surviving plants) of the 'sensitive' population / % Survival out of 14 repetitions: postemergence, 14 days after application; for % Survival out of 14 repetitions: Sensitive, Adigor 0.5% by volume
Source text: (§1) The commercial standard PPO inhibitor fomesafen and compound 1 of the present application were applied to two Amaranthus palmeri populations in order to determine the impact of mutations at amino acid 98 in PPX2L from the wild-type arginine to a glycine.
(§2) The two A. palmeri populations used were as follows: a known PPO inhibitor sensitive population (‘Sensitive’), a population of which each individual was known to be homozygous for a glycine at amino acid 98 in the protoporphyrinogen oxidase gene PPX2L (‘98GG’).
(§3) Seeds were sown in seed trays containing ericaceous compost and covered with vermiculite. When approximately 1 inch in height plants were transplanted 1 per pot into 3-inch diameter pots containing ericaceous compost. The pots were watered and maintained in a glasshouse providing a 16 H photoperiod of 180 μmol m^−2 s^−1 with 24 °C daytime temperatures and 18 °C night-time temperatures and 65% relative humidity until 3 inches tall at which point the herbicides were applied at the use rates specified in Table 1 below to 14 individual plants per rate of each of the biotypes.
(§4) All treatments were applied as dilutions in reverse osmosis water and with the commercial adjuvant Adigor® at 0.5% by volume. Prior to dilution with water compound 8 was initially dissolved to a 5% solution in a solvent mixture comprising 11.12% Emulsogen EL 360, 44.44% Dowanol DPM and 44.44% N-methyl pyrrolidone. Herbicide applications were carried out in a track sprayer with a flat fan nozzle applying the herbicide treatments at a rate of 200 L/ha^−1.
(§5) After treatment, the plants were watered and maintained in a glasshouse providing a 16 H photoperiod of 180 μmol m^−2 s^−1 with 24 °C daytime temperatures and 18 °C night-time temperatures and 65% relative humidity until 14 days after application at which point they were assessed on a ‘dead or alive’ basis. The plants still alive at this point were classed as surviving the herbicide application and the averaged results of this assessment are presented in Table 1.

[2] = tested on: Amaranthus palmeri, homozygous for glycine at amino acid 98 in PPX2L ('98GG', R98G); assay: Postemergence control of Amaranthus palmeri with R98G mutation in PPX2L (Example 1); details: for % Survival out of 14 repetitions: R98G, postemergence, 14 days after application, Adigor 0.5% by volume
Source text: as §1, §2, §3, §4, §5

[3] = tested on: Amaranthus tuberculatus, Sensitive; assay: Postemergence control of sensitive population (Example 2); details: Agridex 1% by volume

Compound | use rate achieving complete control (no surviving plants) of the 'sensitive' population ([1]; 'sensitive' population) | % Survival out of 14 repetitions ([1]; 1 g ai/ha^−1) | % Survival out of 14 repetitions ([1]; 2 g ai/ha^−1) | % Survival out of 14 repetitions ([1]; 4 g ai/ha^−1) | % Survival out of 14 repetitions ([1]; 8 g ai/ha^−1) | % Survival out of 14 repetitions ([1]; 16 g ai/ha^−1) | % Survival out of 14 repetitions ([1]; 32 g ai/ha^−1) | % Survival out of 14 repetitions ([1]; 64 g ai/ha^−1) | % Survival out of 14 repetitions ([2]; 1 g ai/ha^−1) | % Survival out of 14 repetitions ([2]; 2 g ai/ha^−1) | % Survival out of 14 repetitions ([2]; 4 g ai/ha^−1) | % Survival out of 14 repetitions ([2]; 8 g ai/ha^−1) | % Survival out of 14 repetitions ([2]; 16 g ai/ha^−1) | % Survival out of 14 repetitions ([2]; 32 g ai/ha^−1) | % Survival out of 14 repetitions ([2]; 64 g ai/ha^−1) | also measured
CCOC(=O)[C@]1(C)CC(c2cc(-n3c(=O)n(C)c(=S)n(C)c3=O)c(F)cc2Cl)=NO1 [compound 1, ethyl (5S)-3-[2-chloro-5-(3,5-dimethyl-2,6-dioxo-4-thioxo-1,3,5-triazinan-1-yl)-4-fluoro-phenyl]-5-methyl-4H-isoxazole-5-carboxylate] | ≥ 16 g ai/ha^−1 | 100% | 86% | 43% | 7% | 0% | 0% | 0% | 100% | 100% | 100% | 100% | 79% | 79% | 21% | ability for controlling the 'sensitive' population compared with fomesafen ([1]; 'sensitive' population, compared with fomesafen): improved ability compared with fomesafen for controlling the ‘sensitive’ population; % Survival out of 14 repetitions ([1]; 0.5 g ai/ha^−1): 100%; control of '98GG' ([2]; '98GG', 16 g ai/ha^−1 rate, compared with fomesafen): better control of ‘98GG’; % Survival out of 14 repetitions ([2]; 0.5 g ai/ha^−1): 100%; % Survival out of 14 repetitions ([3]; 0.5 g ai/ha^−1, 14 days after application): 100%; % Survival out of 14 repetitions ([3]; 1 g ai/ha^−1, 14 days after application): 100%; % Survival out of 14 repetitions ([3]; 2 g ai/ha^−1, 14 days after application): 86%; % Survival out of 14 repetitions ([3]; 4 g ai/ha^−1, 14 days after application): 43%; % Survival out of 14 repetitions ([3]; 8 g ai/ha^−1, 14 days after application): 14%; % Survival out of 14 repetitions ([3]; 16 g ai/ha^−1, 14 days after application): 0%; % Survival out of 14 repetitions ([3]; 32 g ai/ha^−1, 14 days after application): 0%; % Survival out of 14 repetitions ([3]; 64 g ai/ha^−1, 14 days after application): 0%
CS(=O)(=O)NC(=O)c1cc(Oc2ccc(C(F)(F)F)cc2Cl)ccc1[N+](=O)[O-] [fomesafen, reference compound] | ≥ 64 g ai/ha^−1 | 100% | 100% | 86% | 71% | 14% | 7% | 0% | 100% | 100% | 100% | 100% | 100% | 93% | 93% | % Survival out of 14 repetitions ([1]; 128 g ai/ha^−1): 0%; % Survival out of 14 repetitions ([2]; 128 g ai/ha^−1): 93%
